# Test results published in ChEMBL document CHEMBL1140266, “(2R)-2-methylchromane-2-carboxylic acids: discovery of selective PPARalpha agonists as hypolipidemic agents” (Bioorg Med Chem Lett, 2005).
# Legend:
# [1] = in vivo; settings: Sprague-Dawley, rat, iv, 0.5 mg/kg
# Description: Hail-life period determined against Sprague-Dawley Rat at 0.5 mg/kg after intravenous administration; (Number of rats = 3)
# [2] = target: T1, Peroxisome proliferator-activated receptor delta (Homo sapiens, UniProt Q03181)
# T1 sequence (Q03181 whole entry): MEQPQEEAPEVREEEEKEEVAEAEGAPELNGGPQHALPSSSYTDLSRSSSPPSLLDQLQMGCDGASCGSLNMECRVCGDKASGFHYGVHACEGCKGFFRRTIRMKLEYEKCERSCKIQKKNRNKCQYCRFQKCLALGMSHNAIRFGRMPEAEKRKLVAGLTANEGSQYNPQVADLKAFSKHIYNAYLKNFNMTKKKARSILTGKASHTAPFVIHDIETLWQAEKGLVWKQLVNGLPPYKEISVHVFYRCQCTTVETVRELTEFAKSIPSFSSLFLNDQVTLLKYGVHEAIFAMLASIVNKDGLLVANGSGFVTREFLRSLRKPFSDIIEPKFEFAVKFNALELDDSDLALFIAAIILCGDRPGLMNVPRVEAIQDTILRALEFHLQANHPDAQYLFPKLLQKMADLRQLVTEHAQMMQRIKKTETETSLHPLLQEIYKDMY
# Description: In vitro binding affinity against human PPARdelta
# [3] = target: T2, Peroxisome proliferator-activated receptor alpha (Homo sapiens, UniProt Q07869)
# T2 sequence (Q07869 whole entry): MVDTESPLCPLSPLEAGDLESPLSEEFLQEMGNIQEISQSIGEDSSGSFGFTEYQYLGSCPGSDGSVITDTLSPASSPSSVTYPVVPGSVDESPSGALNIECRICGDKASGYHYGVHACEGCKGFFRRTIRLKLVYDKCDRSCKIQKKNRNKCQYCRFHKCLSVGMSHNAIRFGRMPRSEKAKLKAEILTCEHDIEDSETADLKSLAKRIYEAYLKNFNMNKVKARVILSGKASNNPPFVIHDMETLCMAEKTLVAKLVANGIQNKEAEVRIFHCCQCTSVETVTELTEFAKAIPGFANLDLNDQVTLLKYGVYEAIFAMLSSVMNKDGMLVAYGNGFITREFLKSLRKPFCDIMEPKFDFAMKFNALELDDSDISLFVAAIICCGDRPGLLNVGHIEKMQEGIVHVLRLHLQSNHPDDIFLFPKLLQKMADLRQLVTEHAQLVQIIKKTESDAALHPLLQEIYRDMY
# Description: In vitro binding affinity against human PPARalpha
# [4] = in vivo; settings: Sprague-Dawley, rat, po, 2 mg/kg
# [5] = target: T2, Peroxisome proliferator-activated receptor alpha; type: functional, cell-based, COS-1
# Description: Agonist activity against human PPARalpha in COS-1 cell Gal4 assay
# [6] = in vivo; settings: Sprague-Dawley, rat, iv, 0.5 mg/kg; remark: listed apart in the source
# [7] = test system: Cricetinae gen. sp.; type: functional, Cricetulus griseus; settings: at 10 mg/kg
# Description: In vivo efficacy at 10 mpk against Hamster for cholesterol lowering effect after oral dosing; Number of animals= 9 (vehicle 0.5% methylcellulose)
# [8] = test system: Cricetinae gen. sp.; type: functional; settings: at 10 mg/kg
# Description: In vivo efficacy at 10 mpk against Hamster for triglceride lowering effect after oral dosing; Number of animals= 9 (vehicle 0.5% methylcellulose)
# [9] = target: T2, Peroxisome proliferator-activated receptor alpha; type: functional, cell-based; settings: cos-1
# Description: Agonist activity against human PPARalpha in COS-1 cell Gal4 assay; NA= Not active (less than 20% activation at 10 uM)
# [10] = in vivo; settings: beagle, dog, iv, 0.5 mg/kg
# [11] = in vivo; settings: rhesus monkey, po, 2 mg/kg
# Description: Bioavailability determined against adult Rhesus monkey at 2 mg/kg after peroral administration
# [12] = in vivo; settings: cercopithecidae, iv, 0.5 mg/kg
# Description: Hail-life period determined against adult Rhesus monkey at 0.5 mg/kg after intravenous administration; (Number of rats = 3)
# [13] = test system: Cricetinae gen. sp.; type: functional, Cricetulus griseus; settings: at 10 mg/kg; remark: listed apart in the source
# Description: In vivo efficacy at 10 mpk against Hamster for triglyceride lowering effect after oral dosing; Number of animals= 9 (vehicle 0.5% methylcellulose)
# [14] = in vivo; settings: beagle, dog, po, 2 mg/kg
# Description: Bioavailability determined against adult Beagle dog at 2 mg/kg after peroral administration
# [15] = in vivo; settings: beagle, dog, iv, 0.5 mg/kg; remark: listed apart in the source
# Description: Hail-life period determined against adult Beagle dog at 0.5 mg/kg after intravenous administration; (Number of rats = 3)
# [16] = in vivo; settings: cercopithecidae, iv, 0.5 mg/kg; remark: listed apart in the source
Compound,IC50 [2] [µM],IC50 [3] [nM],EC50 [5] [nM],also measured
CC[C@]1(C(=O)O)CCc2ccc(OCCCOc3ccc(C4CCC(C)(C)CC4)cc3Cl)cc2O1,> 50,1700,700,half-life [1]: 408 min; bioavailability [4]: 95%; clearance [6]: 2.7 mL/min/kg
C[C@]1(C(=O)O)CCc2ccc(OCCCOc3ccc(C4CCCC4)cc3Cl)cc2O1,10.5,40,9,half-life [1]: 78 min; Efficacy [7]: -40%; bioavailability [4]: 54%; Efficacy [8]: -21%; clearance [6]: 6.8 mL/min/kg
CC[C@]1(C(=O)O)CCc2ccc(OCCCOc3ccc(OC(F)(F)F)cc3Cl)cc2O1,1.9,37,6,
CC[C@]1(C(=O)O)CCc2ccc(OCCCOc3ccc(C4CCC5(CC4)CC5)cc3Cl)cc2O1,> 50,610,300,half-life [1]: 270 min; bioavailability [4]: 37%; clearance [6]: 0.62 mL/min/kg
CC[C@]1(C(=O)O)CCc2ccc(OCCCOc3ccc(C4CCOCC4)cc3Cl)cc2O1,> 50,710,22,half-life [1]: 54 min; bioavailability [4]: 77%; clearance [6]: 15.6 mL/min/kg
CC(C)Cc1ccc(OCCCOc2ccc3c(c2)O[C@@](C)(C(=O)O)CC3)c(Cl)c1,7.6,16,6,half-life [1]: 174 min; Efficacy [7]: -50%; bioavailability [4]: 87%; Efficacy [8]: -29%; clearance [6]: 2.6 mL/min/kg
CC(C)(C)c1ccc(OCCCOc2ccc3c(c2)O[C@@](C)(C(=O)O)CC3)c(Cl)c1,> 15,230,80,
C[C@@]1(C(=O)O)CCc2ccc(OCCCOc3ccc(OCC(F)(F)F)cc3Cl)cc2O1,> 50,> 50000,,EC50 [9]: Not Active
C[C@]1(C(=O)O)CCc2ccc(OCCCOc3ccc(OCC4CCC4)cc3Cl)cc2O1,> 15,390,140,
C[C@]1(C(=O)O)CCc2ccc(OCCCOc3ccc(F)cc3Cl)cc2O1,> 50,> 15000,,
O=C(O)C1CCc2ccc(OCCCOc3ccc(OCC(F)(F)F)cc3Cl)cc2O1 (centres undefined),6.9,810,120,
COc1ccc(OCCCOc2ccc3c(c2)O[C@@](C)(C(=O)O)CC3)c(Cl)c1,> 50,3900,,
C[C@]1(C(=O)O)CCc2ccc(OCCCOc3ccc(OCC(F)(F)F)cc3Cl)cc2O1,> 15,110,40,half-life [1]: 162 min; clearance [10]: 5.8 mL/min/kg; bioavailability [11]: 88%; half-life [12]: 150 min; Efficacy [7]: -60%; Efficacy [13]: -54%; bioavailability [4]: 60%; bioavailability [14]: 100%; half-life [15]: 372 min; clearance [6]: 5.1 mL/min/kg; clearance [16]: 5.6 mL/min/kg
CC[C@]1(C(=O)O)CCc2ccc(OCCCOc3ccc(Cl)cc3Cl)cc2O1,4.1,400,130,
CC[C@]1(C(=O)O)CCc2ccc(OCCCOc3ccc(C(F)(F)F)cc3Cl)cc2O1,2.3,90,36,
CC[C@]1(C(=O)O)CCc2ccc(OCCCOc3ccc(C(C)C)cc3Cl)cc2O1,> 15,38,24,

Compound,IC50 [2] [µM],IC50 [3] [nM],EC50 [5] [nM],also measured
CCOc1ccc(OCCCOc2ccc3c(c2)O[C@@](C)(C(=O)O)CC3)c(Cl)c1,> 15,1380,220,
CC[C@]1(C(=O)O)CCc2ccc(OCCCOc3ccc(C(C)(C)C)cc3Cl)cc2O1,> 50,180,28,
C[C@]1(C(=O)O)CCc2ccc(OCCCOc3ccc(Oc4ccc(F)cc4)cc3Cl)cc2O1,5,140,61,
CC[C@]1(C(=O)O)CCc2ccc(OCCCOc3ccc(F)cc3Cl)cc2O1,> 15,> 15000,,EC50 [9]: Not Active
CCC(C)(C)c1ccc(OCCCOc2ccc3c(c2)O[C@@](C)(C(=O)O)CC3)c(Cl)c1,14,7,4,
CC(C)c1ccc(OCCCOc2ccc3c(c2)O[C@@](C)(C(=O)O)CC3)c(Cl)c1,> 15,48,23,half-life [1]: 78 min; Efficacy [7]: -40%; bioavailability [4]: 54%; Efficacy [8]: -18%; clearance [6]: 6.8 mL/min/kg
CC1(C)CCC(c2ccc(OCCCOc3ccc4c(c3)O[C@@](C)(C(=O)O)CC4)c(Cl)c2)CC1,> 50,1700,1000,
CC[C@]1(C(=O)O)CCc2ccc(OCCCOc3ccc(CC(C)C)cc3Cl)cc2O1,> 50,29,7,
CC(C)Oc1ccc(OCCCOc2ccc3c(c2)O[C@@](C)(C(=O)O)CC3)c(Cl)c1,7.4,240,40,
C[C@]1(C(=O)O)CCc2ccc(OCCCOc3ccc(OCC4CC4)cc3Cl)cc2O1,> 15,600,240,half-life [1]: 174 min; Efficacy [7]: -39%; Efficacy [13]: -13%; bioavailability [4]: 76%; clearance [6]: 5.1 mL/min/kg
CC[C@]1(C(=O)O)CCc2ccc(OCCCOc3ccc(OCC(F)(F)F)cc3Cl)cc2O1,> 50,66,4,
C[C@]1(C(=O)O)CCc2ccc(OCCCOc3ccc(OC(F)(F)F)cc3Cl)cc2O1,0.49,57,20,
C[C@]1(C(=O)O)CCc2ccc(OCCCOc3ccc(C4CCC5(CC4)CC5)cc3Cl)cc2O1,> 50,1600,420,
CC[C@]1(C(=O)O)CCc2ccc(OCCCOc3ccc(C4CCCCC4)cc3Cl)cc2O1,> 50,15,5,half-life [1]: 72 min; bioavailability [4]: 57%; clearance [6]: 8.2 mL/min/kg
C[C@]1(C(=O)O)CCc2ccc(OCCCOc3ccc(C4CCCCC4)cc3Cl)cc2O1,> 15,28,2,
